Results on six molecules are retold here after patent publication US11022605B2 (priority 2016, dated 2021).

The conditions of series [1]: in vivo; cited from earlier work.
Series [2] deals with colon cancer. The following applies: cited from earlier work.
Series [3] has as its system neuromuscular junction model (motoneurons synapsed onto skeletal muscle). In kind it is cell-based.

`CC1(C)C(C=C(Cl)Cl)C1C(=O)OCc1cccc(Oc2ccccc2)c1` (stereo not drawn) [1R-cis-, permethrin]: the activity of stereoisomer result in series [1] is recorded as “active”. Turning to `CC1(C)C(C=C(Cl)Cl)C1C(=O)OCc1cccc(Oc2ccccc2)c1` (stereo not drawn) [1R-trans-, permethrin], in series [1], the activity of stereoisomer result is on record as “active”. As to `O=c1[nH]c(=O)n(C2CCCO2)cc1F` (stereo not drawn) [Tegafur], the “optimal uracil to Tegafur ratio for maximizing 5-FU in the tumor relative to blood” value in series [2] is given as 4 to 1. With `CC1(C)C(C=C(Cl)Cl)C1C(=O)OCc1cccc(Oc2ccccc2)c1` (stereo not drawn) [cis-permethrin], the “toxicity relative to trans isomers” value in series [1] was “about ten times more toxic”. Regarding `O=c1cc[nH]c(=O)[nH]1` [uracil], in series [2], the “effect on toxicity of Tegafur” value was “enhances the toxicity of Tegafur”. As to curare, in series [3], the dip frequency sensitivity entry is on record as “approximately exponential”, the “effect on contractile response” value was “inhibitory based on concentration”, the “form of fitted dose-response curve of muscle contraction” value is on record as “biphasic curve” and the “plateau region of biphasic curve versus stimulation frequency” value is “shrinks exponentially for increasing frequency”.
